What was measured:
[1] = test system: transformed human embryonic kidney cell line HEK293; experiment: Measuring intracellular PpIX concentration by HPLC; format: cell-based; details: for intracellular PpIX concentration, increase compared with 5-ALA-free cells: 42° C. for 24 hours
Method: These two types of cells were cultured at 37 or 42° C. for 24 hours in a DME medium containing 10% FBS and 5-ALA at a concentration of 0, 0.5, 1, or 2 mM. Next, the cells were harvested using trypsin treatment. Then, the number of cells contained in a measurement sample was adjusted using a hemocytometer at 1×10^4. After that, the cells were lysed with NaOH, and treated with a DMF solution (i.e., a mixture of N,N-dimethylformamide:2-propanol=100:1). The resulting cell lysate was centrifuged at 13,000 rpm and 4° C. for 10 minutes to collect a supernatant. Subsequently, the supernatant was reacted at room temperature for 24 hours. Finally, the resulting supernatant was used as a measurement sample, and was subjected to a PpIX concentration measurement using HPLC.

[2] = test system: HEK293 cells; experiment: Assay for intracellular reactive oxygen species (DCF-DA, flow cytometry); format: cell-based, human; details: for fluorescence peak value derived from DCF-DA: 42° C. (5-ALA-free cells 244); for level of intracellular reactive oxygen species, increase compared with 5-ALA-free cells: 42° C. for 24 hours, in the dark; for level of intracellular reactive oxygen species (in words): 0.5-2.0 mM 5-ALA
From the text: To investigate what kind of effect 5-aminolevulinic acids according to the present invention could exert on a level of intracellular reactive oxygen species during thermotherapy, human embryonic kidney-derived HEK293 cells and a DCF-DA fluorescent reagent (2′,7′-dichlorodihydrofluorescein diacetate; H2DCFDA) were used to perform an assay for measuring a level of intracellular reactive oxygen species. Note that this assay uses characteristics as follows. Cell-permeable H2DCFDA remains a non-fluorescent substance until it is oxidized in the cytoplasm of a viable cell. Once it enters the viable cell, its diacetate group is cleaved by an intracellular esterase. Then, the resulting molecule is further oxidized by reactive oxygen species to emit fluorescence. The higher the measured fluorescence level, the higher the level of intracellular reactive oxygen species. This assay was performed using the following procedure.
First, HEK293 cells were cultured at 37° C. for 24 hours in 10% fetal bovine serum (FBS)-containing Dulbecco's Modified Eagle (DME) medium. The cells were split into 8 groups. Next, the medium was replaced by an FBS-free DME medium. Then, 5-aminolevulinic acid (5-ALA) was added to each group at a final concentration of 0.5 mM, 1.0 mM, or 2.0 mM, and cultured at 37° C. for 2 hours. After that, 10% FBS was added, and the resulting HEK293 cells were incubated at 37 or 42° C. for 24 hours. In addition, 5-ALA-free HEK293 cells were likewise incubated at 37 or 42° C. for 24 hours. All the above culture processes were conducted in the dark, so that an ultraviolet light, visible light, infrared light, or radiation, etc., was never used for irradiation.
Furthermore, to each group of the HEK293 cells was added a DCF-DA fluorescent reagent (manufactured by Sigma-Aldrich Corporation) at a final concentration of 20 μM. The resulting mixture was incubated for 30 minutes. Then, fluorescence (FL1: green fluorescence) derived from the DCF-DA was measured for each group by flow cytometry (FACSCalibur, manufactured by Becton, Dickinson and Company). […] More specifically, when 0.5 mM of 5-ALA was added at an incubation temperature of 42° C., the level of intracellular reactive oxygen species was increased by 1.23 times (300/244) compared with that of the 5-ALA-free cells. When 1.0 mM of 5-ALA was added, the level of intracellular reactive oxygen species was increased by 1.34 times (326/244). When 2.0 mM of 5-ALA was added, the level of intracellular reactive oxygen species was increased by 1.42 times (346/244).

[3] = test system: human fibroblast line WI-38; experiment: Hyperthermia sensitivity test using flow cytometry; format: cell-based; details: normal cells WI-38, 42° C.
Method: (§1) To investigate what kind of effect the addition of 5-ALA could exert on hyperthermia sensitivity of cancer cells, a hyperthermia sensitivity test was performed using a flow cytometry technique as follows.
(§2) First, a human fibrosarcoma cell line HT-1080 and a colon cancer-derived cell line Caco-2 were prepared as cancer cell lines, and a human fibroblast line WI-38 and a murine fibroblast line NIH3T3 were prepared as normal cell lines. Also, prepared was a human embryonic kidney cell line HEK293 transformed so as to overgrow like cancer cells. These cells were cultured at 37° C. for 24 hours in 10% FBS-containing DME medium, and split into 8 groups. Next, the medium was replaced by an FBS-free DME medium. Then, 5-aminolevulinic acid (5-ALA) was added to each group at a final concentration of 0.5 mM, 1.0 mM, or 2.0 mM, and cultured at 37° C. for 2 hours. After that, 10% FBS was added, and the resulting cell groups were incubated […] for 24 hours. In addition, 5-ALA-free cell groups were likewise incubated at 37 or 42° C. for 24 hours. All the above culture processes were conducted in the dark, so that an ultraviolet light, visible light, infrared light, or radiation, etc., was never used for irradiation.
(§3) With regard to the fraction of dead cells, a total number of cells having apoptosis and necrosis was counted, and a ratio of the total number to the number of all cells was calculated. […] Of note is little enhancement of the cell death-inducing effect in normal cells.

[4] = test system: human fibrosarcoma cell line HT-1080; experiment: Hyperthermia sensitivity test using flow cytometry; format: cell-based; details: for fraction of dead cells (%), increase compared with 5-ALA-free cells: 42° C.
Method: as §1, §2, §3

[5] = test system: human embryonic kidney cell line HEK293 transformed so as to overgrow like cancer cells; experiment: Hyperthermia sensitivity test using flow cytometry; format: cell-based; details: for fraction of dead cells (%), increase compared with 5-ALA-free cells: 42° C.
Method: as §1, §2, §3

[6] = test system: colon cancer-derived cell line Caco-2; experiment: Hyperthermia sensitivity test using flow cytometry; format: cell-based; details: for fraction of dead cells (%), increase compared with 5-ALA-free cells: 42° C.
Method: as §1, §2, §3

[7] = test system: murine fibroblast line NIH3T3; experiment: Hyperthermia sensitivity test using flow cytometry; format: cell-based; details: normal cells NIH3T3, 42° C.
Method: as §1, §2, §3

Compound: NCC(=O)CCC(=O)O [5-ALA, 5-aminolevulinic acid]
- intracellular PpIX concentration, increase compared with 5-ALA-free cells ([1]; HEK293, 0.5 mM 5-ALA): about 2.75 times
- intracellular PpIX concentration, increase compared with 5-ALA-free cells ([1]; HEK293, 1.0 mM 5-ALA): about 6.3 times
- intracellular PpIX concentration, increase compared with 5-ALA-free cells ([1]; HEK293, 2.0 mM 5-ALA): about 5.9 times
- PpIX concentration in the HEK293 cell line (in words) ([1]; culture conditions at 42° C.): increased depending on the 5-ALA concentration
- fluorescence peak value derived from DCF-DA ([2]; 0.5 mM 5-ALA): 300
- level of intracellular reactive oxygen species, increase compared with 5-ALA-free cells ([2]; 0.5 mM 5-ALA): 1.23 times
- fluorescence peak value derived from DCF-DA ([2]; 1.0 mM 5-ALA): 326
- level of intracellular reactive oxygen species, increase compared with 5-ALA-free cells ([2]; 1.0 mM 5-ALA): 1.34 times
- fluorescence peak value derived from DCF-DA ([2]; 2.0 mM 5-ALA): 346
- level of intracellular reactive oxygen species, increase compared with 5-ALA-free cells ([2]; 2.0 mM 5-ALA): 1.42 times
- level of intracellular reactive oxygen species (in words) ([2]; incubation temperature 37° C.): somewhat increased
- level of intracellular reactive oxygen species (in words) ([2]; incubation temperature 42° C.): markedly increased
- 5-ALA concentration-dependent cell death (in words) [3]: not enhanced
- fraction of dead cells (%), increase compared with 5-ALA-free cells ([4]; HT-1080, 0.5 mM 5-ALA): about 1.7 times
- fraction of dead cells (%), increase compared with 5-ALA-free cells ([4]; HT-1080, 1.0 mM 5-ALA): about 1.5 times
- fraction of dead cells (%), increase compared with 5-ALA-free cells ([4]; HT-1080, 2.0 mM 5-ALA): about 2.3 times
- fraction of dead cells (in words) ([4]; HT-1080, 37° C.): somewhat increased
- fraction of dead cells (in words) ([4]; HT-1080, 42° C.): increase markedly
- fraction of dead cells (%), increase compared with 5-ALA-free cells ([5]; HEK293, 0.5 mM 5-ALA): about 3.2 times
- fraction of dead cells (%), increase compared with 5-ALA-free cells ([5]; HEK293, 1.0 mM 5-ALA): about 4.8 times
- fraction of dead cells (%), increase compared with 5-ALA-free cells ([5]; HEK293, 2.0 mM 5-ALA): about 6.0 times
- fraction of dead cells (in words) ([5]; HEK293, 37° C.): somewhat increased
- fraction of dead cells (in words) ([5]; HEK293, 42° C.): increase markedly
- fraction of dead cells (%), increase compared with 5-ALA-free cells ([6]; Caco-2, 0.5 mM 5-ALA): about 2.1 times
- fraction of dead cells (%), increase compared with 5-ALA-free cells ([6]; Caco-2, 1.0 mM 5-ALA): about 2.0 times
- fraction of dead cells (%), increase compared with 5-ALA-free cells ([6]; Caco-2, 2.0 mM 5-ALA): about 1.9 times
- fraction of dead cells (in words) ([6]; Caco-2, 37° C.): somewhat increased
- fraction of dead cells (in words) ([6]; Caco-2, 42° C.): increase markedly
- 5-ALA concentration-dependent cell death (in words) [7]: not enhanced

Source: patent US9012502B2, “Cancer heat therapy-enhancing agent” (SBI Pharmaceuticals Co., Ltd., priority 2010, dated 2015)
